Patent US9493487B2, “3-(1H-imidazo[4,5-C]pyridin-2-YL)-1H-pyrazolo[3,4-B]pyridine and therapeutic uses thereof” (Samumed, LLC, priority 2014, dated 2016)

Key:
Type in all cases: cell-based
[1] = tested on: Wnt activity (Sp5-Luc reporter, SW480 colon carcinoma cells); experiment: Sp5-Luc Wnt reporter gene assay in SW480 colon carcinoma cells; conditions: Homo sapiens; SW480 cells stably expressing Sp5-Luc reporter; 42 h incubation; BrightGlo luminescence normalized to DMSO
Procedure, shortened: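 IC50 values come from variable-slope four-parameter fits of luciferase signal normalized to DMSO wells. Stable Sp5-Luc reporter SW480 colon carcinoma cells were exposed to compounds in a 3-fold dilution series (source plates from 10 mM stock) for forty-two hours at 37 °C.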

[2] = tested on: primary human mesenchymal stem cells (hMSCs); experiment: Chondrogenesis induction screen in primary human mesenchymal stem cells (nodule count, Rhodamine B/Nile Red); conditions: 144 h, 6 days, concentration required to induce chondrogenesis equivalent to TGF-β3 (10 ng/mL), read-out: Conc (nM) of 100% TGF-β3 activity
Method: The above synthesized compounds were screened using primary human mesenchymal stem cells (hMSCs) to determine their ability to induce chondrogenesis (process by which cartilage is developed).
Primary human mesenchymal stem cells (hMSCs) were purchased from Lonza (Walkersville, Md.) and expanded in Mesenchymal Stem Cell Growth Media (Lonza). Cells between passage 3 and 6 were used for the experiments.
Each compound was dissolved in DMSO as a 10 mM stock and used to prepare compound source plates. Serial dilution (1:3, 6-point dose-response curves from 2700 nM to 10 nM) and compound transfer was performed using the ECHO 550 (Labcyte, Sunnyvale, Calif.) into 96-well clear bottom assay plates (Greiner Bio-One) with appropriate DMSO backfill for a final DMSO concentration of 0.03%. hMSCs were plated at 20,000 cells/well in 250 μL/well Incomplete Chondrogenic Induction Medium (Lonza; DMEM, dexamethasone, ascorbate, insulin-transferrin-selenium [ITS supplement], gentamycin-amphotericin [GA-1000], sodium pyruvate, proline and L-glutamine). TGF-β3 (10 ng/mL) was used as a positive control for differentiation while negative control wells were treated with 75 nL DMSO for normalization and calculating EC50 values. Cells were incubated at 37° C. and 5% CO2 for 6 days. To image chondrogenic nodules, the cells were fixed using 4% formaldehyde (Electron Microscopy Sciences), and stained with 2 μg/mL Rhodamine B (Sigma-Aldrich) and 20 μM Nile Red (Sigma-Aldrich) [Johnson K., et. al, A Stem Cell-Based Approach to Cartilage Repair, Science, (2012), 336(6082), 717-721]. The nodules imaged (4 images per well at 4× magnification) by excitation at 531 nm and emission at 625 nm and quantified using the CellInsight CX5 (Thermo Scientific). Number of nodules in each well was normalized to the average of 3 DMSO treated wells on the same plate using Excel (Microsoft Inc.). The normalized averages (fold change over DMSO) of 3 replicate wells for each compound concentration were calculated. Due to solubility limitations of some of the compounds, curve fitting was incomplete leading to inaccurate EC50 determinations.
Using TGF-β3 as a positive control, the concentration of test compounds required to induce equivalent levels of chondrogenesis is reported. In addition, the maximum activity of each compound and the respective dose that each compound reached maximum chondrogenesis activity is reported.

[3] = tested on: primary human fibroblasts derived from IPF patients (LL29 cells); experiment: Inhibition of TGF-β1-induced fibrosis (αSMA staining) in primary human fibroblasts from IPF patients; conditions: Fibroblast, 96 h, TGF-β1 20 ng/mL, 4 days, 11-point dose-response 10 μM to 1.87 nM
Procedure, shortened: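 LL29 cells in F12 with 1% FBS were exposed to compound (11-point, 10 μM–1.87 nM, 0.1% DMSO) plus TGF-β1 20 ng/mL for 4 days at 37° C. Imaged αSMA-positive fraction of live (SYTOX-negative) cells, normalized to TGF-β1/DMSO wells; EC50 by non-linear regression of triplicates.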

Structure (SMILES)	IC50 [1] [nM]	EC (100% TGF-beta3 activity) [2] [nM]	EC50 [3] [nM]
CCC(=O)Nc1cncc(-c2cnc3[nH]nc(-c4nc5c(-c6cccc(F)c6)nccc5[nH]4)c3c2)c1 [Compound 1, N-(5-(3-(4-(3-Fluorophenyl)-1H-imidazo[4,5-c]pyridin-2-yl)-1H-pyrazolo[3,4-b]pyridin-5-yl)pyridin-3-yl)propionamide]	5.8	117	62
O=C(Nc1cncc(-c2cnc3[nH]nc(-c4nc5c(-c6ccc(F)cc6)nccc5[nH]4)c3c2)c1)C1CCC1 [Compound 46, N-(5-(3-(4-(4-Fluorophenyl)-1H-imidazo[4,5-c]pyridin-2-yl)-1H-pyrazolo[3,4-b]pyridin-5-yl)pyridin-3-yl)cyclobutanecarboxamide]	5	80.6	253
Nc1cncc(-c2cnc3[nH]nc(-c4nc5c(-c6ccccc6F)nccc5[nH]4)c3c2)c1 [Compound 55, 5-(3-(4-(2-Fluorophenyl)-1H-imidazo[4,5-c]pyridin-2-yl)-1H-pyrazolo[3,4-b]pyridin-5-yl)pyridin-3-amine]	5.9	32.2	283
Cc1cn(-c2nccc3[nH]c(-c4n[nH]c5ncc(-c6cncc(NC(=O)CC(C)C)c6)cc45)nc23)cn1 [Compound 184, 3-Methyl-N-(5-(3-(4-(4-methyl-1H-imidazol-1-yl)-1H-imidazo[4,5-c]pyridin-2-yl)-1H-pyrazolo[3,4-b]pyridin-5-yl)pyridin-3-yl)butanamide]	4.8	5.4	–
CCCC(=O)Nc1cncc(-c2cnc3[nH]nc(-c4nc5c(-c6ccsc6)nccc5[nH]4)c3c2)c1 [Compound 251, N-(5-(3-(4-(Thiophen-3-yl)-1H-imidazo[4,5-c]pyridin-2-yl)-1H-pyrazolo[3,4-b]pyridin-5-yl)pyridin-3-yl)butyramide]	9.9	52.8	73
CC(C)Nc1cncc(-c2cnc3[nH]nc(-c4nc5c(-c6ccoc6)nccc5[nH]4)c3c2)c1 [Compound 272, 5-(3-(4-(Furan-3-yl)-1H-imidazo[4,5-c]pyridin-2-yl)-1H-pyrazolo[3,4-b]pyridin-5-yl)-N-isopropylpyridin-3-amine]	13	72	9
O=C(Nc1cncc(-c2cnc3[nH]nc(-c4nc5c(-c6cccs6)nccc5[nH]4)c3c2)c1)C1CC1 [Compound 305, N-(5-(3-(4-(Thiophen-2-yl)-1H-imidazo[4,5-c]pyridin-2-yl)-1H-pyrazolo[3,4-b]pyridin-5-yl)pyridin-3-yl)cyclopropanecarboxamide]	9	54.9	–
Cc1ccc(-c2nccc3[nH]c(-c4n[nH]c5ncc(-c6cncc(N)c6)cc45)nc23)s1 [Compound 341, 5-(3-(4-(5-Methylthiophen-2-yl)-1H-imidazo[4,5-c]pyridin-2-yl)-1H-pyrazolo[3,4-b]pyridin-5-yl)pyridin-3-amine]	0.9	58.2	9
CC(=O)c1ccc(-c2nccc3[nH]c(-c4n[nH]c5ncc(-c6cccnc6)cc45)nc23)s1 [Compound 368, 1-(5-(2-(5-(Pyridin-3-yl)-1H-pyrazolo[3,4-b]pyridin-3-yl)-1H-imidazo[4,5-c]pyridin-4-yl)thiophen-2-yl)ethan-1-one]	10.4	84.6	241
Cc1ccncc1-c1cnc2[nH]nc(-c3nc4c(-c5cc(F)cc(CNS(C)(=O)=O)c5)nccc4[nH]3)c2c1 [Compound 395, N-(3-Fluoro-5-(2-(5-(4-methylpyridin-3-yl)-1H-pyrazolo[3,4-b]pyridin-3-yl)-1H-imidazo[4,5-c]pyridin-4-yl)benzyl)methanesulfonamide]	8	92.8	9
CC(C)Nc1cncc(-c2cnc3[nH]nc(-c4nc5c(-c6cc(F)cc(NCCN(C)C)c6)nccc5[nH]4)c3c2)c1 [Compound 428, N^1-(3-Fluoro-5-(2-(5-(5-(isopropylamino)pyridin-3-yl)-1H-pyrazolo[3,4-b]pyridin-3-yl)-1H-imidazo[4,5-c]pyridin-4-yl)phenyl)-N^2,N^2-dimethylethane-1,2-diamine]	15	82.9	20
Cn1cc(-c2cnc3[nH]nc(-c4nc5c(-c6cccc(F)c6)nccc5[nH]4)c3c2)cn1 [Compound 888, 3-(4-(3-Fluorophenyl)-1H-imidazo[4,5-c]pyridin-2-yl)-5-(1-methyl-1H-pyrazol-4-yl)-1H-pyrazolo[3,4-b]pyridine]	12	74.9	14
Cc1ncc(-c2cnc3[nH]nc(-c4nc5c(-c6cccc(F)c6)nccc5[nH]4)c3c2)n1C [Compound 889, 5-(1,2-Dimethyl-1H-imidazol-5-yl)-3-(4-(3-fluorophenyl)-1H-imidazo[4,5-c]pyridin-2-yl)-1H-pyrazolo[3,4-b]pyridine]	12	152	9
